Measurements: paper PMC5142287, “Weight control interventions improve therapeutic efficacy of dacarbazine in melanoma by reversing obesity-induced drug resistance” (Cancer & Metabolism, 2016)

How the values were obtained:
[1] = tested on: B16F10 melanoma; test: B16F10 melanoma isograft in HFD (obese) C57BL/6J mice: tumor growth and survival; format: in vivo; conditions: HFD mice, vs untreated counterparts
Method: (§1) To study the impact of diet-induced obesity on the outcome of DTIC therapy in melanoma, we treated B16F10 melanoma isografted obese mice with DTIC purchased from Sigma, USA (80 mg/kg intraperitoneally for five consecutive days as described previously). In addition, to look into the impact of weight loss interventions on the outcome of DTIC therapy in obese mice, mice were administered with orlistat (an antiobesity drug known to inhibit gastrointestinal lipases) and/or shifted from high fat to normal diet followed by DTIC treatment. The detailed experimental plan is illustrated in Fig. 1a. Briefly, obese mice were administered orally with orlistat (10 mg/kg on every alternate day) purchased from Enzo Life Sciences, NY, USA, and/or shifted from high fat diet to normal diet. HFD C57BL/6J mice treated with vehicle or orlistat were termed as HFD-HFD Ctrl and HFD-HFD Orli (N = 11 per each group), respectively, whereas HFD C57BL/6J mice shifted to normal diet and treated with vehicle or orlistat were grouped as HFD-ND Ctrl and HFD-ND Orli (N = 11 per each group), respectively. After 15 days, these mice were injected subcutaneously (s.c.) with B16F10 cells (2 × 10^5) in 100 μl of PBS and monitored daily for the presence of palpable tumors and dimensions were recorded on alternate days. […] Tumor volume was calculated using the formula 0.52 × length × width^2 and was followed up throughout the study.

[2] = tested on: 3T3-L1 adipocytes; design: method as in PMID 10840932; conditions: cited from earlier work
[3] = Obesity-associated factors in B16F10-isografted ND C57BL/6J mice; format: in vivo; conditions: end of experiment
Excerpt: (§2) Blood glucose levels and serum lipids were estimated as described previously. Insulin, leptin, and adiponectin levels in the serum were estimated by mouse-specific respective ELISA kits as described. Resistin, IL-6, and TNF-α levels in the serum were detected by indirect ELISA as described previously.

[4] = tested on: B16F10 melanoma; test: B16F10 melanoma isograft in ND C57BL/6J mice: tumor growth and survival
Method: Melanoma cells were injected and orlistat treatment was continued. Following tumor formation, all groups of mice were treated with vehicle (acidified water) or DTIC, and tumor volume was followed up in these mice throughout the study as mentioned above. […] At the end of the experiment, mice were sacrificed, tumors were excised, and the samples were immediately preserved at −80 °C until further use. Five mice from each group were followed up for survival studies as mentioned above.

[5] = Obesity-associated factors in B16F10-isografted HFD C57BL/6J mice (body weight, blood glucose, serum lipids, ELISA); format: in vivo; conditions: end of experiment, mean ± SD
Excerpt: C57BL/6J mice were procured from Experimental Animal Facility (EAF) at National Centre for Cell Science (NCCS), Pune, India. High fat diet (24% fat) was purchased from Provimi Animal Nutrition Pvt. Ltd., Bangalore, India, and normal diet (5% fat) was obtained from Amrut Laboratory, Pune, India. The compositions of diets are provided in supplementary data (Additional file 1: Table S1). Diet-induced obesity was developed in the mice by feeding them with high fat diet as described previously. Male C57BL/6J mice (6–8 weeks old) were divided into normal diet (ND) and high fat diet (HFD) group. ND group was fed with normal diet while HFD group was fed with high fat diet supplemented with ground nut and dried coconut for 6 months. Body weight and serum chemistry profile were measured monthly to verify obesity-associated changes. Water and food were provided ad libitum to all the mice. All animal experiments were carried out as per the requirement and guidelines of the Committee for the Purpose of Control and Supervision of Experiments on Animals (CPCSEA), Government of India, and after obtaining permission of the Institutional Animal Ethics Committee (IAEC).
as §2, §1

## CCCCCCCCCCC[C@@H](C[C@@H]1OC(=O)[C@H]1CCCCCC)OC(=O)[C@H](CC(C)C)NC=O [orlistat]
[1]
  Tumor growth: restricted tumor growth
[2]
  Differentiation of 3T3-L1 adipocytes: inhibited
[3]; mean
  Blood glucose: 161.83 mg/dL
  Serum IL-6: 19.99 pg/mL
  Serum LDLc: 51.26 mg/dL
  Serum TG: 54.93 mg/dL
  Serum TNF-D: 11.78 pg/mL
  Serum adiponectin: 13803 ng/mL
  Serum cholesterol: 81.36 mg/dL
  Serum free fatty acids: 0.89 mM/L
  Serum insulin: 0.116 µg/L
  Serum leptin: 15.43 ng/mL
  Serum resistin: 0.98 ng/mL
[3]; mean (SD on next line)
  Body weight: 21.50 g
[4]
  Survival of tumor-bearing mice: did not influence
[4]; DTIC 80 mg/kg i.p. 5 days, orlistat 10 mg/kg oral alternate days
  Tumor progression (tumor volume and weight): unaltered
[5]; HFD-HFD (continued on HFD), orlistat 10 mg/kg oral alternate days, DTIC 80 mg/kg i.p. 5 days
  Body weight: 26.16 ± 0.71 (p < 0.0001) g
[5]; HFD-HFD
  Blood glucose: 146.3 ± 5.99 (p < 0.0001) mg/dl
  Serum IL-6: 35.45 ± 2.88 (p < 0.0001) pg/ml
  Serum LDLc: 66.69 ± 3.42 (p < 0.0001) mg/dl
  Serum TG: 66.03 ± 3.39 (p < 0.0001) mg/dl
  Serum TNF-α: 13.78 ± 1.07 (p < 0.0001) pg/ml
  Serum adiponectin: 8204 ± 593 (p < 0.0001) ng/ml
  Serum cholesterol: 95.75 ± 4.91 (p < 0.0001) mg/dl
  Serum free fatty acids: 1.74 ± 0.09 (p < 0.0001) mM/l
  Serum insulin: 0.269 ± 0.01 (p < 0.0001) μg/l
  Serum leptin: 33.74 ± 2.47 (p < 0.0001) ng/ml
  Serum resistin: 1.66 ± 0.08 (p < 0.0001) ng/ml
[5]; HFD-ND (shifted from HFD to normal diet)
  Body weight: 23.1 ± 1.02 (p < 0.0001) g
[5]; HFD-ND
  Blood glucose: 128.83 ± 6.24 (p < 0.0001) mg/dl
  Serum IL-6: 29.25 ± 2.12 (p < 0.0001) pg/ml
  Serum LDLc: 63.31 ± 3.13 (p < 0.0001) mg/dl
  Serum TG: 60.53 ± 3.15 (p < 0.0001) mg/dl
  Serum TNF-α: 11.48 ± 1.12 (p < 0.0001) pg/ml
  Serum adiponectin: 9108 ± 550 (p < 0.0001) ng/ml
  Serum cholesterol: 88.64 ± 5.17 (p < 0.0001) mg/dl
  Serum free fatty acids: 1.66 ± 0.08 (p < 0.0001) mM/l
  Serum insulin: 0.2570 ± 0.01 (p < 0.0001) μg/l
  Serum leptin: 26.54 ± 1.60 (p < 0.0001) ng/ml
  Serum resistin: 1.19 ± 0.06 (p < 0.0001) ng/ml
